Structures can show the parent of a compound that is named as a salt.
Assays:
[1] = tested on: contractile response to potassium-induced depolarization on isolated rat aorta; assay: Calcium inhibitory properties: antagonism of contractile response to potassium-induced depolarization on isolated rat aorta; design: species or system rat (male Wistar); settings: percent of maximal contraction before incubation, 60 min
Source text: It is well established that the depolarization of a smooth muscle membrane by potassium makes the latter permeable to extracellular calcium and induces muscle contraction. Consequently, the measurement of inhibition of the contractile response to depolarization by potassium or the measurement of relaxation of the tonic contraction on potassium depolarization can provide an evaluation of the potency of a compound as an inhibitor of the membrane permeability to Ca^++ ions. The technique used is the following: The aorta is removed from male Wistar rats weighing about 300 g and cut into strips approximately 40 mm long and 3 mm wide. These fragments are placed in a 25 ml isolated organ bath containing modified Krebs-bicarbonate solution (112 mM NaCL; 5 mM KCl; 25 mM NaHCO3; 1 mM KH2 PO4; 1.2 mM MgSO4; 2.5 mM CaCl2; 11.5 mM glucose, made up to 1000 ml with distilled water) maintained at 37° C. and through which a stream of carbon dioxide is passed. The preparation is connected to a force microsensor and the contractile response is recorded after amplification on a recorder. A tension of 2g is applied to the preparation. This latter is maintained in the modified Krebs-bicarbonate solution for 60 minutes, and then contractions are induced by replacing the Krebsbi-carbonate solution by a Krebs-potassium solution (17 mM NaCl; 100 mM KCl; 25 mM NaHCO3; 1 mM KH2 PO4; 1.2 mM MgSO4; 2.5 mM CaCl2; 11.5 mM glucose; made up to 1000 ml with distilled water). When the contractile response of the preparation has become reproducible, a given amount of the compound of the invention is introduced into the bath. Sixty minutes later a new spasm is induced by potassium depolarization. The results obtained on the aorta under investigation are then expressed in percent of the maximal contractional effect before incubation with the test substance. As examples, the following results were obtained, the compounds of formula (1) being in the form of the free base, the hydrochloride, oxalate or fumarate.

[2] = tested on: increase in blood pressure induced by epinephrine (anti-α effect); assay: Anti-α effect: reduction of epinephrine-induced increase in blood pressure in anesthetized atropinized dog; format: in vivo; design: key: +: for a reduction <50%; ++: for a reduction ≥50%; +++: for an almost complete reduction
Method: The aim of this test is to determine the capacity of the compounds of the invention to reduce the increase in blood pressure induced by epinephrine (anti-αeffect) and the acceleration of the heart rate induced by isoprenaline (anti-βeffect) in the dog previously anesthetized with pentobarbital and atropinized. First, are determined for each dog the dose of epinephrine (between 3 and 10 μg/kg) which causes a reproducible increase in arterial blood pressure of about 133.10^2 Pa and the dose of isoprenaline (1 to 2 μg/kg) which causes a reproducible increase in the heart rate of about 70 beats/minute. The doses of epinephrine and isoprenaline thus determined are injected alternatively every ten minutes and after the two consecutive reference responses have been obtained, a quantity of the test compound is administered by the intravenous route. The percentage reduction of the hypertension caused by the test compound in comparison with the reference hypertension previously obtained (about 100 mm Hg) is recorded. In both cases, the results of the reduction in arterial pressure and heart rate are expressed as follows: […]

[3] = tested on: acceleration of the heart rate induced by isoprenaline (anti-β effect); assay: Anti-β effect: reduction of isoprenaline-induced acceleration of the heart rate in anesthetized atropinized dog; format: in vivo; design: key to Anti-β effect: +: for a reduction <50%; ++: for a reduction ≥50%; +++: for an almost complete reduction
Method: The aim of this test is to determine the capacity of the compounds of the invention to reduce the increase in blood pressure induced by epinephrine (anti-αeffect) and the acceleration of the heart rate induced by isoprenaline (anti-βeffect) in the dog previously anesthetized with pentobarbital and atropinized.
First, are determined for each dog the dose of epinephrine (between 3 and 10 μg/kg) which causes a reproducible increase in arterial blood pressure of about 133.10^2 Pa and the dose of isoprenaline (1 to 2 μg/kg) which causes a reproducible increase in the heart rate of about 70 beats/minute. The doses of epinephrine and isoprenaline thus determined are injected alternatively every ten minutes and after the two consecutive reference responses have been obtained, a quantity of the test compound is administered by the intravenous route.
The percentage reduction of the acceleration of the heart rate caused by the test compound compared with the reference tachycardia previously measured (about 70 beats) is recorded.
In both cases, the results of the reduction in arterial pressure and heart rate are expressed as follows: […]

Row | Compound | % maximal contractional effect ([1]; 10^-7 M, 0.1 µM) | % maximal contractional effect ([1]; 10^-8 M, 0.01 µM) | % maximal contractional effect ([1]; 10^-9 M, 0.001 µM) | further results
1 | CCCCc1oc2ccc([N+](=O)[O-])cc2c1S(=O)(=O)c1ccc(OCCCN(C)CCc2ccc(OC)c(OC)c2)cc1 [Ex. 1, 2-n-butyl 3-{4-[3-(N-methyl N-3,4-dimethoxy-β-phenethylamino)propoxy]benzenesulfonyl} 5-nitro benzofuran hydrochloride] | 70,1% |  |  | % maximal contractional effect ([1]; 10^-6 M, 1 µM): 45,4%; Anti-α effect ([2]; intravenous, 3,23 mg/kg): +++
2 | COc1ccc(CCN(C)CCCOc2ccc(S(=O)(=O)c3c(C(C)C)c4ccccc4n3CCCN(C)CCc3ccc(OC)c(OC)c3)cc2)cc1OC [Ex. 10, 2-{4-[3-(N-methyl N-3,4-dimethoxy-β-phenethylamino)propoxy]benzenesulfonyl} 1-[3-(N-methyl N-3,4-dimethoxy-β-phenethylamino)propyl] 3-isopropyl indole dioxalate] | 78,9% | 90,2% |  | Anti-β effect ([3]; intravenous, 4,9 mg/kg): +++; Anti-α effect ([2]; intravenous, 4,9 mg/kg): +++
3 | COc1ccc2c(c1)c(C(C)C)c(S(=O)(=O)c1ccc(OCCCN(C)CCc3ccc(OC)c(OC)c3)cc1)n2C [Ex. 61, 2-{4-[3-(N-methyl N-3,4-dimethoxy-β-phenethylamino)propoxy]benzenesulfonyl} 3-isopropyl 5-methoxy 1-methyl indole hydrogen fumarate] | 15,7% | 31,2% | 71,4% | % maximal contractional effect ([1]; 10^-10 M, 0.0001 µM): 89,5%; inhibition in vivo at 0.035 mg/kg ([3]; Canis lupus familiaris, intravenous, 0,035 mg/kg): ≥ 50%; Anti-α effect ([2]; intravenous, 0,035 mg/kg): +++
4 | COc1ccc(CCN(C)CCCOc2ccc(S(=O)(=O)c3c(C(C)C)cn4c(C)cccc34)cc2)cc1OC [Ex. 79, 2-Isopropyl 5-methyl 1-{4-[3-(N-methyl N-3,4-dimethoxy-β-phenethylamino)propoxy]benzenesulfonyl}indolizine] |  | 29,8% | 77,9% | % maximal contractional effect ([1]; 10^-10 M, 0.0001 µM): 87,3%; Anti-α effect ([2]; intravenous, 0,07 mg/kg): +++
5 | COc1cc(CCN(C)CCCOc2ccc(S(=O)(=O)c3c(C(C)C)cn4cccc(C)c34)cc2)cc(OC)c1 [Ex. 76, 1-{4-[3-(N-methyl N-3,5-dimethoxy-β-phenethylamino)propoxy]benzenesulfonyl} 2-isopropyl 8-methyl indolizine] |  | 12,7% | 41,8% | % maximal contractional effect ([1]; 10^-10 M, 0.0001 µM): 64,1%; Anti-β effect ([3]; intravenous, 0,013 mg/kg): +++; Anti-α effect ([2]; intravenous, 0,013 mg/kg): +++
6 | COc1ccc(CCN(C)CCCOc2ccc([S+]([O-])c3c(C(C)C)c4cc(Cl)ccc4n3C)cc2)cc1OC (stereo not drawn) [Ex. 56, (5-chloro 3-isopropyl 1-methylindo-2yl)4-[3-(N-methyl N-3,4-dimethoxy-β-phenethylamino)propoxy]phenyl sulfoxide hydrogen oxalate] | 19,8% | 61,3% | 78,6% | Anti-α effect ([2]; intravenous, 0,67 mg/kg): +++
7 | COc1ccc(CCN(C)CCCOc2ccc(S(=O)(=O)c3c(C(C)C)n(C)c4ccc(Cl)cc34)cc2)cc1OC [Ex. 13, 3-{4-[3-(N-methyl N-3,4-dimethoxy-β-phenethylamino)propoxy]benzenesulfonyl} 5-chloro 2-isopropyl 1-methylindole] | 35,5% | 79,2% |  | Anti-α effect ([2]; intravenous, 0,6 mg/kg): +++
8 | CCCCN(CCCC)CCCOc1ccc(S(=O)(=O)c2c(C(C)C)cn3cccc(C)c23)cc1 [Ex. 75, 1-{4-[3-(di-n-butylamino)propoxy]benzenesulfonyl} 2-isopropyl 8-methyl indolizine] |  | 9,7% | 51,4% | % maximal contractional effect ([1]; 10^-10 M, 0.0001 µM): 83,8%; Anti-α effect ([2]; intravenous, 0,02 mg/kg): ++ (for a reduction ≥50%)
9 | CCCCN(CCCC)CCCOc1ccc(S(=O)(=O)c2c(C(C)C)c3cc(OC)ccc3n2C)cc1.O=C(O)C(=O)O [Ex. 64, 2-{4-[3-(di-n-butylamino)propoxy]benzenesulfonyl} 3-isopropyl 5-methoxy 1-methyl indole hydrogen oxalate] | 69,3% | 72,6% | 93,9% | Anti-α effect ([2]; intravenous, 0,5 mg/kg): +++
10 | 2-isopropyl 8-methyl 1-{4-[3-(6,7-dimethoxy 1,2,3,4-tetrahydro N-isoquinolin-2-yl)propoxy]benzenesulfonyl}indolizine hydrogen oxalate [Ex. 2] |  |  |  | Anti-β effect ([3]; intravenous, 0,065 mg/kg): +++; Anti-α effect ([2]; intravenous, 0,065 mg/kg): +++
11 | CCCCN(CCCC)CCCOc1ccc(S(=O)(=O)c2c(C(C)C)n(C)c3ccc(Cl)cc23)cc1.O=C(O)C(=O)O [Ex. 44, 1-methyl 2-isopropyl 3-{4-[3-(di-n-butylamino)propoxy]benzenesulfonyl} 5-chloro indole hydrogen oxalate] | 69,6% | 85,7% |  | Anti-α effect ([2]; intravenous, 1,2 mg/kg): ++ (for a reduction ≥50%)
12 | CCCCN(CCCC)CCCOc1ccc(S(=O)(=O)c2c(C)nn3cccc(C)c23)cc1.O=C(O)C(=O)O [Ex. 49, 3-{4-[3-(di-n-butylamino)propoxy]benzenesulfonyl} 2,4-dimethyl pyrazolo[1,5-a]pyridine hydrogen oxalate] |  | 62,9% | 75,7% | Anti-α effect ([2]; intravenous, 0,28 mg/kg): + (for a reduction <50%)
13 | CC(C)c1c(S(=O)(=O)c2ccc(OCCCN(C)C3CCCc4ccccc43)cc2)c2cc(Cl)ccc2n1C.O=C(O)C(=O)O (stereo not drawn) [Ex. 47, 1-methyl 2-isopropyl 3-{4-[3-(N-methyl N-1,2,3,4-tetrahydronaphth-1-ylamino)propoxy]benzenesulfonyl} 5-chloro indole hydrogen oxalate] | 75,3% | 88,3% | 91,4% | Anti-α effect ([2]; intravenous, 6,6 mg/kg): ++ (for a reduction ≥50%)
14 | CCCCN(CCCC)CCCOc1ccc(S(=O)(=O)c2c(C(C)C)cn3ccccc23)cc1 [B, reference compound] |  | 61% |  | Anti-α effect ([2]; intravenous, 0,5 mg/kg): ++ (for a reduction ≥50%)

Reference: patent US5444056A, “Aminoalkoxyphenyl derivatives, process for their preparation and compositions containing them” (Sanofi, priority 1989, dated 1995)
